Test results: US20260256923A1, “NEW RECRUITMENT ELEMENT OF UBIQUITIN LIGASE AND USE THEREOF” (SHENZHEN LINGGENE BIOTECH CO., LTD., priority 2023, published 2026)

Experiments:
MDM2 [1] = target: T1, MDM2 (Homo sapiens, UniProt P19338+Q00987); assay: MDM2 protein degradation in A549 non-small cell lung cancer cells, western blot; type: cell-based; settings: A549, 200 nM, 3 h
T1 construct: endogenous in cells; host or cells: A549
Experimental: (1) A549 non-small cell lung cancer cells were incubated with 200 nM AS1411-VH032, and corresponding cell samples were collected at time gradients of 0 h, 3 h, 6 h, 9 h, 12 h, and 24 h for protein extraction and subsequent western blot assay to detect protein degradation.
(2) A549 non-small cell lung cancer cells were incubated with AS1411-VH032 at concentrations of 0 nM, 50 nM, 100 nM, 150 nM, 200 nM, and 250 nM. After 3 h, cell samples were collected for protein extraction and subsequent western blot assay to detect protein degradation.
(3) A549 non-small cell lung cancer cells were incubated with 200 nM AS1411, VH032, AS1411-VH032, or AS1411+VH032. After 3 h, cell samples were collected for protein extraction and subsequent western blot assay to detect protein degradation.
(4) A549 non-small cell lung cancer cells were incubated with 200 nM AS1411-VH032 for 3 h, and proteasome inhibitor MG132 was added. Cell samples were collected for protein extraction and subsequent western blot assay.
(5) A549 non-small cell lung cancer cells were transfected with si-NC or si-NCL and subsequently incubated with 200 nM AS1411-VH032 for 3 h. Cell samples were collected for protein extraction and subsequent western blot assay.
(1) A549 non-small cell lung cancer cells were incubated with 1000 nM AS1411-AS1411, and corresponding cell samples were collected at time gradients of 0 h, 3 h, 6 h, 9 h, 12 h, and 24 h for protein extraction and subsequent western blot assay to detect protein degradation.
(2) A549 non-small cell lung cancer cells were incubated with AS1411-AS1411 at concentrations of 0 nM, 50 nM, 100 nM, 250 nM, 500 nM, and 1000 nM. After 12 h, cell samples were collected for protein extraction and subsequent western blot assay to detect protein degradation.
(3) A549 non-small cell lung cancer cells were incubated with 1000 nM AS1411, AS1411-AS1411, or AS1411+AS1411. After 12 h, cell samples were collected for protein extraction and subsequent western blot assay to detect protein degradation. […]

[2] = system: MCF 10A human normal mammary epithelial cells; assay: Toxicity to normal cells, cell apoptosis proportion by flow cytometer; type: cell-based; settings: 0-5000 nM, 4 days, medium renewed every day
Experimental: The toxicity of AS1411 to normal cells was compared with that of the small molecule ligand nutlin-3a of MDM2 to normal cells. AS1411 or nutlin-3a at different concentrations (0 nM, 500 nM, 1000 nM, and 5000 nM) was incubated with MCF 10A human normal mammary epithelial cells for 4 days, and the medium containing the respective concentrations of AS1411 or nutlin-3a was renewed every day. The cell apoptosis proportion was detected using a flow cytometer.

MDM2 [3] = target: T2, MDM2 (Homo sapiens, UniProt Q00987); assay: Biotin-oligonucleotide pull-down from HeLa cell lysate, western blot (MDM2); type: binding; design: HeLa cervical cancer cells were lysed with an IP lysis solution; endogenous in cells; host or cells: HeLa; settings: 5′-biotin label, 0 nM-20 μM
Experimental: (§1) HeLa cervical cancer cells were lysed with an IP lysis solution (purchased from Thermo Scientific, Cat. No.: 87788) and then incubated with a CRO (cytosine-rich oligonucleotide, negative control, SEQ ID NO: 13), AS1411, or iSN04 labeled by biotin at the 5′ end at different concentrations (0 nM, 200 nM, 500 nM, 1 μM, 5 μM, 10 μM, and 20 μM) at 4° C. for 6h. Subsequently, streptavidin agarose gel beads (purchased from cytiva, Cat. No.: 17511301) were added, and the mixture was further incubated at 4° C. overnight. After the bound biotin-labeled CRO, AS411, or iSN04 and its captured proteins on the gel beads were washed multiple times with an IP lysis buffer (purchased from Thermo Scientific, Cat. No.: 87788), an SDS-PAGE protein loading buffer (purchased from Beyotime, Cat. No.: P0015) was added, and the mixture was heated to 100° C. and held for 10 min. After centrifugation, the supernatant was collected as a pull-down product. The pull-down product was detected by western blot assay.
Target sequence in this assay (P19338 2-710 partner limits assumed): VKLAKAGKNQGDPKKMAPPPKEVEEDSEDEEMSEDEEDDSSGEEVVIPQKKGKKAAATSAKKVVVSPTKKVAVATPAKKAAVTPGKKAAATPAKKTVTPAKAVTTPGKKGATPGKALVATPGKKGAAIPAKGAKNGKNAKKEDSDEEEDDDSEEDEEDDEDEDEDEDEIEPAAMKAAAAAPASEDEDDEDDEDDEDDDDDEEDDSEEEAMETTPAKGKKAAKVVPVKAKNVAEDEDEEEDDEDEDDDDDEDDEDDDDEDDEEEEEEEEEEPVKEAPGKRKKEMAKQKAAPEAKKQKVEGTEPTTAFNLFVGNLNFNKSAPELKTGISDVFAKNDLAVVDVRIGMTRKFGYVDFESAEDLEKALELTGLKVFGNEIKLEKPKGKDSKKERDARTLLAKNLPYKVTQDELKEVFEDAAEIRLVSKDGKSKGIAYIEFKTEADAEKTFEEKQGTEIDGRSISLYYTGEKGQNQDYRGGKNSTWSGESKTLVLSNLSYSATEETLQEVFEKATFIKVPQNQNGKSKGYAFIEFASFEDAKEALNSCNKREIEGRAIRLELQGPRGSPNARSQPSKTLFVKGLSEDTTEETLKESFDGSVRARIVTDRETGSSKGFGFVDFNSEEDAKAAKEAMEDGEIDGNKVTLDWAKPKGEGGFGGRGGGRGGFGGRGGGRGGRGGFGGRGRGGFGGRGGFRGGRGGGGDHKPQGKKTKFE
Target sequence in this assay (Q00987 whole entry): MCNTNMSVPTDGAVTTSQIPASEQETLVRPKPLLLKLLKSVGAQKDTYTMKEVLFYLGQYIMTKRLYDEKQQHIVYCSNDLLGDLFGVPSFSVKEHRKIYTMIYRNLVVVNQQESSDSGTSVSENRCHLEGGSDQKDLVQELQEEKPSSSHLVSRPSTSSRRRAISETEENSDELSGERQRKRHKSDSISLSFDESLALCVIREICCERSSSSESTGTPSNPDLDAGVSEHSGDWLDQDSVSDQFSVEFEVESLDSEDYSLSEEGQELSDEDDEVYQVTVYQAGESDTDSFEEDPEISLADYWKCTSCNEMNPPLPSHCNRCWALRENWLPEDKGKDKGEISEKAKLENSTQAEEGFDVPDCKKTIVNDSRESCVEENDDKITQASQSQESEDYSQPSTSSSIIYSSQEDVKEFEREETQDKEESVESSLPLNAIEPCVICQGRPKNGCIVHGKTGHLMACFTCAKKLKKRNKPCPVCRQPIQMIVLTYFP

NCL [4] = target: T3, NCL (Homo sapiens, UniProt P19338); assay: Biotin-oligonucleotide pull-down from HeLa cell lysate, western blot (NCL); type: binding; design: HeLa cervical cancer cells were lysed with an IP lysis solution; endogenous in cells; host or cells: HeLa cell lysate; settings: 5′-biotin label, 0 nM-20 μM
T3 sequence (P19338 whole entry): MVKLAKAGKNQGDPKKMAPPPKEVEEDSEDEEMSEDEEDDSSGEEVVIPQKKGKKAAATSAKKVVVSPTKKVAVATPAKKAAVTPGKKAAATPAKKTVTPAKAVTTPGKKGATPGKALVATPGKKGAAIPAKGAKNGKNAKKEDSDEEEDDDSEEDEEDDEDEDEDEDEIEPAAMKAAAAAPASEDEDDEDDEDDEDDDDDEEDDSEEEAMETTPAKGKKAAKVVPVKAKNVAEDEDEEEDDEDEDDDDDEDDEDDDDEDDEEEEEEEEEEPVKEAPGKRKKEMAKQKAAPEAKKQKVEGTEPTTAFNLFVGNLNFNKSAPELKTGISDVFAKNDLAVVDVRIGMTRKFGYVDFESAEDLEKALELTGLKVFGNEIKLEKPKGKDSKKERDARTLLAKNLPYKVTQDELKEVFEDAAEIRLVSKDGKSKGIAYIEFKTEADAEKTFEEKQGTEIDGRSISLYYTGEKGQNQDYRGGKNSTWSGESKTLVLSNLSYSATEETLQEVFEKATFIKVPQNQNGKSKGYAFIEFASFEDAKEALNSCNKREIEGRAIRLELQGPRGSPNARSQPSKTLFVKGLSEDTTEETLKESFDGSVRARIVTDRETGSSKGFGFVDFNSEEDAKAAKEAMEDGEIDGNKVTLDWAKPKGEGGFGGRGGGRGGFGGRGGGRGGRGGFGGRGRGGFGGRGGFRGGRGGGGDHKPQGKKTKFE
Experimental: as §1

MDM2 [5] = target: T2, MDM2; assay: Biotin-oligonucleotide pull-down with recombinant proteins (MDM2); type: binding; design: purchased R&D Systems (MDM2); ACROBiosystems (NCL) E3-202-050 (MDM2); NUL-H5253 (NCL); settings: 400 nM 5′-biotin label, 6 μg/mL NCL + 6 μg/mL MDM2
Experimental: (§2) 6 μg/mL recombinant human NCL and 6 μg/mL recombinant human MDM2 were mixed well and incubated at 4° C. for 7 h. Subsequently, 400 nM CRO, AS1411, or iSN04 labeled by biotin at the 5′ end was added, and the mixture was incubated at 4° C. for 6 h. Streptavidin agarose gel beads (purchased from cytiva, Cat. No.: 17511301) were added, and the mixture was further incubated at 4° C. overnight. The gel beads were washed 4 times with a TBST buffer, and an SDS-PAGE protein loading buffer (purchased from Beyotime, Cat. No.: P0015) was added. The mixture was heated to 100° C. and held for 10 min. After centrifugation, the supernatant was collected. The pull-down product was then detected by western blot assay.
Target sequence in this assay (P19338 whole entry partner): as the sequence (P19338 whole entry) above
Target sequence in this assay (Q00987 whole entry): as the sequence (Q00987 whole entry) above

NCL [6] = target: T3, NCL; assay: Biotin-oligonucleotide pull-down with recombinant proteins (NCL); type: binding; design: purchased ACROBiosystems (NCL); R&D Systems (MDM2) NUL-H5253 (NCL); E3-202-050 (MDM2); settings: 400 nM 5′-biotin label, 6 μg/mL NCL + 6 μg/mL MDM2
Experimental: as §2

[7] = G4 structural characteristics, N-methyl mesoporphyrin IX (NMM) fluorescent probe; type: physicochemical; settings: 1 μM NMM
Experimental: Both AS1411 and iSN04 are oligonucleotides specifically binding to NCL. The sequence of AS1411 is SEQ ID NO: 1, and the sequence of iSN04 is SEQ ID NO: 14. AS1411 contains a plurality of GGT motifs, and iSN04 contains one GGT motif. Whether AS1411 and iSN04 have stable G4 structural characteristics was determined. The experimental process was as follows: 5 μM NC (negative control, SEQ ID NO: 15), AS1411, or iSN04 was added to water, and the total volume was 100 μL. The mixture was heated at 95° C. for 7 min and then immediately incubated on ice for 3 min, followed by the addition of 2 μL of N-methyl mesoporphyrin IX (NMM) (purchased from MCE, Cat. No.: HY-133821) to make a final concentration of 1 μM. The resulting mixture was incubated at room temperature for 1 h in the dark. The fluorescence intensity was detected by a microplate reader, with an emission wavelength of 550-700 nm and an excitation wavelength of […].
Guanine-rich DNA sequences can form more distinct G4 structural characteristics in the presence of metal ions (usually sodium and potassium ions). 5 μM NC (negative control, SEQ ID NO: 15), AS1411, or iSN04 was added to a 100 mM K^+ solution, and the total volume was 100 μL. The mixture was well mixed, heated at 95° C. for 7 min, and then immediately incubated on ice for 3 min, followed by the addition of 2 μL of N-methyl mesoporphyrin IX (NMM) (purchased from MCE, Cat. No.: HY-133821) to make a final concentration of 1 μM. The resulting mixture was incubated at room temperature for 1 h in the dark. The fluorescence intensity was detected by a microplate reader, with an emission wavelength of 550-700 nm and an excitation wavelength of […].

[8] = target: T4, interaction between NCL and MDM2 (Homo sapiens, UniProt P19338); assay: Co-immunoprecipitation of NCL and MDM2 from HeLa cell lysate, western blot; type: binding; settings: 0-20 μM, 4° C. 6 h, IP with antibody against NCL
T4 construct: HeLa cervical cancer cells were lysed with an IP lysis solution; endogenous in cells; host or cells: HeLa cell lysate
T4 sequence (P19338 2-710 limits assumed): as the sequence (P19338 2-710 partner limits assumed) above
Experimental: Co-immunoprecipitation (Co-IP) is a classical method for the study of protein interactions based on the specific interaction between an antibody and an antigen. It is an effective method to determine the physiological interaction between two proteins in intact cells.
HeLa cervical cancer cells were lysed with an IP lysis solution (purchased from Thermo Scientific, Cat. No.: 87788) and then incubated with AS 1411 or iSN04 at different concentrations (0 μM, 1 μM, 5 μM, 10 μM, and 20 μM) at 4° C. for 6 h. Subsequently, […] of an antibody against NCL was added, and the mixture was further incubated at 4° C. overnight. Protein A/G magnetic beads (purchased from Thermo Scientific, Cat. No.: 88802) were added, and the mixture was incubated with rotation at room temperature for 1.5 h. The bound NCL and its interacting proteins on the magnetic beads were washed with an IP lysis buffer (purchased from Thermo Scientific, Cat. No.: 87788), and an SDS-PAGE protein loading buffer (purchased from Beyotime, Cat. No.: P0015) was added. The mixture was heated to 100° C. and held for 10 min. The magnetic beads were adsorbed on a magnetic rack, and the supernatant was transferred into a new tube. Subsequently, western blot assay was performed to detect whether NCL bound to MDM2 and whether the binding was affected by AS 1411 or iSN04. […]

T1 sequence (Q00987 whole entry): as the sequence (Q00987 whole entry) above
T1 sequence (P19338 2-710 limits assumed): as the sequence (P19338 2-710 partner limits assumed) above

Compound	protein level of MDM2 (MDM2 [1])	toxicity to normal cells (cell apoptosis proportion) [2]	capture of MDM2 (MDM2 [3])	capture of NCL (NCL [4])	binding / recruitment of MDM2 (MDM2 [5])	binding to NCL (NCL [6])	G4 structural characteristics (fluorescence signal intensity) ([7]; 5 μM in 100 mM K+ solution)	G4 structural characteristics (fluorescence signal intensity) ([7]; 5 μM in water (no K+))	effect on the interaction between NCL and MDM2 [8]
CC(=O)N[C@H](C(=O)N1C[C@H](O)C[C@H]1C(=O)NCc1ccc(-c2scnc2C)cc1)C(C)(C)C [VH032]	neither AS1411, VH032, nor AS1411+VH032 can reduce the protein level of MDM2	–	–	–	–	–	–	–	–
COc1ccc(C2=N[C@@H](c3ccc(Cl)cc3)[C@@H](c3ccc(Cl)cc3)N2C(=O)N2CCNC(=O)C2)c(OC(C)C)c1 [nutlin-3a]	–	can cause cell apoptosis	–	–	–	–	–	–	–
CRO: cytosine-rich oligonucleotide, negative control, SEQ ID NO: 13 (DNA CCTCCTCCTCCTTCTCCTCCTCCTCC; DNA, backbone and methylation of C not given here; further chemistry not fully specified)	–	–	cannot capture either NCL or MDM2	cannot capture either NCL or MDM2	cannot bind to either NCL or MDM2	cannot bind to either NCL or MDM2	–	–	–
iSN04: oligonucleotide specifically binding to NCL, SEQ ID NO: 14: 5′-AGATTAGGGTGAGGGTGA-3′ (DNA, backbone not given here)	–	–	cannot capture MDM2	can capture NCL only at a high concentration	cannot recruit MDM2 depending on its interaction with NCL	can only bind to NCL	1000-2000	No G4 structural characteristics were detected	blocks the binding of NCL to MDM2
